According to patent publication US20060069132A1, “Azolecarboxamide herbicides” (priority 2004, published 2006):

What was measured:
morningglory = assay: Test A pre-/postemergence herbicide test; format: in vivo, Ipomoea spp.
Outline: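 Pre: seeded sandy loam, directed soil spray, compound in non-phytotoxic solvent + surfactant. Post: 1–2-leaf plants (2–10 cm), sprayed to runoff. Greenhouse ~10 d; visual injury vs untreated, 0–100 scale.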

kochia = assay: Test C pre-/postemergence herbicide test; format: in vivo, Kochia scoparia; details: for Kochia plant response rating: 500 g ai/ha
Outline: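 Visual injury scores run from 0 (no effect) to 100 (complete control), assessed relative to untreated controls 12 to 14 days after treatment in the greenhouse. Chemicals were formulated in a non-phytotoxic solvent mixture with surfactant and applied to soil after planting or to emerged plants at the 1- to 4-leaf stage.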

Italian ryegrass [1] = assay: Test C postemergence herbicide test; format: in vivo, Lolium multiflorum
Outline: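 Ratings (0 = no effect, 100 = complete control) come from visual comparison with untreated plants after 12 to 14 days in the greenhouse. Treatment was postemergence at the 1- to 4-leaf stage (2–18 cm), or at the 2-leaf stage for the flooded paddy barnyardgrass.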

johnsongrass = assay: Test E pre-/postemergence herbicide test; format: in vivo, Sorghum halepense; details: Preemergence
Outline: (§1)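 Seeds were planted and treated preemergence with test chemicals in a non-phytotoxic solvent mixture containing surfactant; plants at 2 to 18 cm (1- to 4-leaf stage) received postemergence applications of the same formulation. After 12 to 14 days in a greenhouse, injury was visually rated against untreated controls on a 0 to 100 scale.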

southern sandbur = assay: Test E pre-/postemergence herbicide test; format: in vivo, Cenchrus echinatus; details: Preemergence
Outline: as §1

Italian ryegrass [2] = assay: Test E pre-/postemergence herbicide test; format: in vivo, Lolium multiflorum; details: Preemergence
Outline: as §1

broadleaf signalgrass = assay: Test E pre-/postemergence herbicide test; format: in vivo, Brachiaria platyphylla; details: Preemergence
Outline: as §1

[3] = Postemergence, 250 g ai/ha, scale 0 to 100, 0 no effect, 100 complete control
[4] = postemergence, 125 g ai/ha, scale 0 to 100
[5] = 125 g ai/ha, scale 0 (no effect) to 100 (complete control)
[6] = 250 g ai/ha, scale 0 (no effect) to 100 (complete control)
[7] = 500 g ai/ha, scale 0 (no effect) to 100 (complete control)

Q: Which “Morningglory plant response rating” value (morningglory; Postemergence, 500 g ai/ha, 0 to 100 scale, 0 no effect, 100 complete control) does the source give for `CCNC(=O)c1cccc(NC(=O)c2cc(C(C)(C)C)nn2CC)n1` [Compound 144] here?
A: The value was 25.

Q: And the “Plant response rating, Morningglory” value (morningglory; Postemergence, 2000 g ai/ha, 0 to 100 scale, 0 no effect, 100 complete control)?
A: Its value is 35.

Q: And the “Morningglory plant response rating” value (morningglory; Preemergence, 500 g ai/ha, visual rating, 0 to 100 scale (0 no effect, 100 complete control))?
A: Its value is 20.

Q: What about the “Morningglory plant response rating” value (morningglory; Preemergence, 2000 g ai/ha, visual rating, 0 to 100 scale (0 no effect, 100 complete control)) of the same compound?
A: Its value is 75.

Q: And the “Plant response rating (0 = no effect, 100 = complete control), Kochia” value (kochia; 62 g ai/ha, preemergence)?
A: The value was 75.

Q: And the “Plant response rating, Kochia” value (kochia; 125 g ai/ha, scale 0 (no effect) to 100 (complete control), visual, 12 to 14 days, preemergence)?
A: The value was 80.

Q: And the “Kochia plant response rating” value (kochia; Postemergence, scale 0 to 100)?
A: The value was 85.

Q: And the “Plant response rating, Kochia” value (kochia; [3])?
A: The value was 70.

Q: And the “Kochia plant response rating” value (kochia; Preemergence, scale 0 to 100, 0 no effect, 100 complete control)?
A: The value was 100.

Q: And the “Plant response rating, Kochia” value (kochia; [4])?
A: The value was 65.

Q: And the “Ryegrass, Italian plant response rating” value (Italian ryegrass [1]; Postemergence, 500 g ai/ha, scale 0 to 100)?
A: The value was 50.

Q: And the “Plant response rating, Ryegrass, Italian” value (Italian ryegrass [1]; [3])?
A: Its value is 40.

Q: What about the “Plant response rating, Ryegrass, Italian” value (Italian ryegrass [1]; [4]) of the same compound?
A: The value was 20.

Q: And the “Plant response rating, Ryegrass, Italian” value (Italian ryegrass [1]; postemergence, 62 g ai/ha, scale 0 to 100)?
A: Its value is 20.

Q: What about the “Plant response rating, Johnsongrass” value (johnsongrass; 62 g ai/ha, scale 0 to 100) of the same compound?
A: The value was 30.

Q: What about the “Plant response rating, Johnsongrass” value (johnsongrass; [5]) of the same compound?
A: The value was 50.

Q: What about the “Plant response rating, Johnsongrass” value (johnsongrass; [6]) of the same compound?
A: The value was 60.

Q: What about the “Plant response rating, Johnsongrass” value (johnsongrass; [7]) of the same compound?
A: Its value is 60.

Q: What about the “Plant response rating, Sandbur” value (southern sandbur; 62 g ai/ha, scale 0 to 100) of the same compound?
A: Its value is 10.

Q: And the “Plant response rating, Sandbur” value (southern sandbur; [5])?
A: Its value is 30.

Q: And the “Plant response rating, Sandbur” value (southern sandbur; [6])?
A: Its value is 30.

Q: What about the “Plant response rating, Sandbur” value (southern sandbur; [7]) of the same compound?
A: The value was 60.

Q: And the “Plant response rating, Ryegrass, Italian” value (Italian ryegrass [2]; 62 g ai/ha, scale 0 to 100)?
A: Its value is 10.

Q: And the “Plant response rating, Ryegrass, Italian” value (Italian ryegrass [2]; [5])?
A: Its value is 60.

Q: And the “Plant response rating, Ryegrass, Italian” value (Italian ryegrass [2]; [6])?
A: The value was 80.

Q: What about the “Plant response rating, Ryegrass, Italian” value (Italian ryegrass [2]; [7]) of the same compound?
A: Its value is 95.

Q: What about the “Plant response rating, Signalgrass” value (broadleaf signalgrass; 62 g ai/ha, scale 0 to 100) of the same compound?
A: Its value is 10.

Q: And the “Plant response rating, Signalgrass” value (broadleaf signalgrass; [5])?
A: Its value is 20.

Q: What about the “Plant response rating, Signalgrass” value (broadleaf signalgrass; [6]) of the same compound?
A: Its value is 30.

Q: What about the “Plant response rating, Signalgrass” value (broadleaf signalgrass; [7]) of the same compound?
A: Its value is 50.
